Measured values taken from the supplement of paper PMC10307832.

Assays:
Experiment in all cases: relative viability (nuclei count vs DMSO), 5 days (fraction); higher = more cells survive
Everolimus + Dasatinib = compound: CO[C@H]1C[C@@H]2CC[C@@H](C)[C@@](O)(O2)C(=O)C(=O)N2CCCC[C@H]2C(=O)O[C@H]([C@H](C)C[C@@H]2CC[C@@H](OCCO)[C@H](OC)C2)CC(=O)[C@H](C)/C=C(\C)[C@@H](O)[C@@H](OC)C(=O)[C@H](C)C[C@H](C)/C=C/C=C/C=C/1C [Everolimus] + Cc1nc(Nc2ncc(C(=O)Nc3c(C)cccc3Cl)s2)cc(N2CCN(CCO)CC2)n1 [Dasatinib] (partner 0.075 µM)
Procedure, shortened: (§1)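 Cells from lung cancer lines were seeded into 1536-well plates and, one day later, dosed by pin tool. Treatments were either a single drug or a fixed dose of an anchor drug with five library-drug doses (not always all listed) in √10 steps. After 5 days, nuclei were stained in a one-step fixation (final 0.05% Triton X-100, 1% formaldehyde, 1 ug/ml Hoechst) and counted on 4× images, and relative viability is the treated-to-vehicle nuclei ratio, as the median of duplicate plates.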

Everolimus + Vorinostat = compound: CO[C@H]1C[C@@H]2CC[C@@H](C)[C@@](O)(O2)C(=O)C(=O)N2CCCC[C@H]2C(=O)O[C@H]([C@H](C)C[C@@H]2CC[C@@H](OCCO)[C@H](OC)C2)CC(=O)[C@H](C)/C=C(\C)[C@@H](O)[C@@H](OC)C(=O)[C@H](C)C[C@H](C)/C=C/C=C/C=C/1C [Everolimus] + O=C(CCCCCCC(=O)Nc1ccccc1)NO [Vorinostat] (partner 1 µM)
Procedure, shortened: as §1

Everolimus + Pictilisib = compound: CO[C@H]1C[C@@H]2CC[C@@H](C)[C@@](O)(O2)C(=O)C(=O)N2CCCC[C@H]2C(=O)O[C@H]([C@H](C)C[C@@H]2CC[C@@H](OCCO)[C@H](OC)C2)CC(=O)[C@H](C)/C=C(\C)[C@@H](O)[C@@H](OC)C(=O)[C@H](C)C[C@H](C)/C=C/C=C/C=C/1C [Everolimus] + CS(=O)(=O)N1CCN(Cc2cc3nc(-c4cccc5[nH]ncc45)nc(N4CCOCC4)c3s2)CC1 [Pictilisib] (partner 1 µM)
Procedure, shortened: as §1

Everolimus + Crizotinib = compound: CO[C@H]1C[C@@H]2CC[C@@H](C)[C@@](O)(O2)C(=O)C(=O)N2CCCC[C@H]2C(=O)O[C@H]([C@H](C)C[C@@H]2CC[C@@H](OCCO)[C@H](OC)C2)CC(=O)[C@H](C)/C=C(\C)[C@@H](O)[C@@H](OC)C(=O)[C@H](C)C[C@H](C)/C=C/C=C/C=C/1C [Everolimus] + C[C@@H](Oc1cc(-c2cnn(C3CCNCC3)c2)cnc1N)c1c(Cl)ccc(F)c1Cl [Crizotinib] (partner 1 µM)
Procedure, shortened: as §1

| Cell Line | relative viability (Everolimus + Dasatinib; first compound 0.01 µM) | relative viability (Everolimus + Dasatinib; first compound 0.03162 µM) | relative viability (Everolimus + Dasatinib; first compound 0.1 µM) | relative viability (Everolimus + Dasatinib; first compound 0.3162 µM) | relative viability (Everolimus + Dasatinib; first compound 1 µM) | relative viability (Everolimus + Vorinostat; first compound 0.01 µM) | relative viability (Everolimus + Vorinostat; first compound 0.03162 µM) | relative viability (Everolimus + Vorinostat; first compound 0.1 µM) | relative viability (Everolimus + Vorinostat; first compound 0.3162 µM) | relative viability (Everolimus + Vorinostat; first compound 1 µM) | relative viability (Everolimus + Pictilisib; first compound 0.01 µM) | relative viability (Everolimus + Pictilisib; first compound 0.03162 µM) | relative viability (Everolimus + Pictilisib; first compound 0.1 µM) | relative viability (Everolimus + Pictilisib; first compound 0.3162 µM) | relative viability (Everolimus + Pictilisib; first compound 1 µM) | relative viability (Everolimus + Crizotinib; first compound 0.01 µM) | relative viability (Everolimus + Crizotinib; first compound 0.03162 µM) | relative viability (Everolimus + Crizotinib; first compound 0.1 µM) | relative viability (Everolimus + Crizotinib; first compound 0.3162 µM) | relative viability (Everolimus + Crizotinib; first compound 1 µM) |
| --- | --- | --- | --- | --- | --- | --- | --- | --- | --- | --- | --- | --- | --- | --- | --- | --- | --- | --- | --- | --- |
| HCC-15 | 0.667 | 0.546 | 0.417 | 0.561 | 0.489 | 0.937 | 0.862 | 0.767 | 0.753 | 0.77 | 0.633 | 0.517 | 0.372 | 0.539 | 0.545 | 0.931 | 0.887 | 0.791 | 0.829 | 0.75 |
| HCC-44 |  |  |  |  |  | 1.17 | 1.23 | 1.03 | 1.14 | 1.05 | 0.429 | 0.427 | 0.309 | 0.55 | 0.323 | 0.912 | 0.935 | 0.774 | 0.86 | 0.677 |
| HCC-78 | 0.328 | 0.291 | 0.248 | 0.263 | 0.343 | 0.401 | 0.372 | 0.416 | 0.367 | 0.307 | 0.193 | 0.19 | 0.201 | 0.185 | 0.16 | 0.315 | 0.261 | 0.265 | 0.259 | 0.298 |
| HCC-366 | 0.459 | 0.593 | 0.477 | 0.46 | 0.354 | 0.221 | 0.16 | 0.181 | 0.214 | 0.165 | 0.116 | 0.0953 | 0.131 | 0.11 | 0.138 | 0.433 | 0.441 | 0.526 | 0.295 | 0.372 |
| HCC-827 | 0.221 | 0.331 | 0.2 | 0.168 | 0.17 | 0.643 | 0.578 | 0.709 | 0.827 | 0.794 | 0.957 | 0.875 | 0.781 | 0.863 | 0.611 | 0.947 | 0.831 | 0.852 | 0.998 | 0.839 |
| HOP-62 | 0.394 | 0.424 | 0.352 | 0.382 | 0.387 | 0.475 | 0.345 | 0.388 | 0.389 | 0.361 | 0.326 | 0.274 | 0.17 | 0.267 | 0.352 | 0.934 | 0.58 | 0.556 | 0.583 | 0.637 |
| IA-LM |  |  |  |  |  | 0.815 | 0.83 | 0.425 | 0.342 | 0.352 | 0.211 | 0.162 | 0.137 | 0.158 | 0.104 | 0.418 | 0.424 | 0.256 | 0.478 | 0.441 |
| LC-2-ad | 0.544 | 0.51 | 0.515 | 0.427 | 0.505 | 0.851 | 0.865 | 0.759 | 0.79 | 0.728 | 0.456 | 0.372 | 0.386 | 0.282 | 0.283 | 0.542 | 0.48 | 0.384 | 0.449 | 0.417 |
